Laboratory results published in US20110076331A1, “Use of Deuterium Oxide as an Elastase Inhibitor” (priority 2008, published 2011).

What was measured:
[1] = test system: patients with psoriasis vulgaris; experiment: Half-side hydrogel experiment in psoriasis vulgaris; type: in vivo, human; settings: 2 wt % Carbopol 980 gel with 1 wt % urea, twice a day, after 4 weeks; vs H2O gel
Description: A half-side experiment was conducted by means of hydrogel to determine the effect of D2O in psoriasis vulgaris. The gel was a 2 wt % Carbopol 980 with 1 wt % urea. The pH value of the gel was set at 6.5 with NaOH solution. […] The local psoriasis severity index (LPSI) was used for evaluation (Henneicke-von Zepelin, H. H., Mrowietz, U., Färber, L., Bruck-Borchers, K., Schober, C., Huber, J., Lutz, G., Kohnen, R., Christophers, E., Welzel, D., Highly purified omega-3-polyunsaturated fatty acids for topical treatment of psoriasis. Results of a double-blind, placebo-controlled multicenter study. Br J Dermatol. 1993; 129:713-7). The patients were relied on to apply the content of tubes marked “right” and “left” twice a day on the corresponding lesions on the right or left elbow. A gel produced with D2O was found in one tube, the gel in the other tube was prepared with H2O. Division occurred randomly. LPSI was determined once a week.

[2] = test system: subjects with colds accompanied by severe nasal obstruction; experiment: Decongestion of nasal mucosa (rhinomanometry); type: in vivo, human; settings: one pump spray of D2O saline in each nostril
Description: Physiological saline was prepared from D2O (experiment group) and H2O (control group) and filled into a pump spray container as is ordinarily used to release nasal spray. Subjects with colds accompanied by severe nasal obstruction were divided into two groups of eight subjects each. Air flow through the nose was determined by rhinomanometry (initial value) in each subject right before treatment (after thorough removal of secretions). The subjects of the experimental group then each received one pump spray of D2O saline in each nostril, while the subjects of the control group received H2O saline instead in the same amount. Thirty and 60 minutes after application air flow was determined in each subject by rhinomanometry and the percent change of air flow relative to the initial value was calculated. From these values an average was formed for the verum and control groups (average percentage change in air flow <Lf%>). A positive value of <Lf%> indicates an increase, a negative value a reduction in air flow. For the experimental group after 30 minutes a value of <Lf%>=20±5% and after 60 minutes <Lf%>=90±10% was obtained. The control group gave <Lf%>=10±5% after 30 minutes and <Lf%>=5±5% after 60 minutes.

[3] = test system: white New Zealand rabbits; experiment: Animal model for myocardial reperfusion damage (coronary artery ligature); type: in vivo, rabbit; settings: intravenous D2O isotonic saline 15 minutes before or 25 minutes after reopening of the coronary artery; vs H2O-treated animals
Description: In an animal model for reperfusion damage a reduced blood supply to the heart muscle tissue was achieved by ligature of a coronary artery in male white New Zealand rabbits, which led to damage (Bidouard, J. P. et al.; SSR69071, an elastase inhibitor, reduces myocardial infarct size following ischemia reperfusion injury, Eur J Pharmacol. 2003; 461:49-52). By thoracotomy a side branch of the left coronary artery was closed by ligature for 30 minutes and then opened again in order to achieve reperfusion over 120 minutes. Before removal of the heart an ink bolus (pelican ink) was introduced to the ascending aorta. To investigate the effect of D2O on reperfusion damage the animals were divided into three groups of two animals each. Two groups received an intravenous treatment with D2O in the form of isotonic saline either 15 minutes before (experimental group 1) or 25 minutes after (experimental group 2) reopening of the coronary artery, the other group (control group) was treated with H2O as isotonic saline. After removal of the heart, unclamping of the aorta, formalin fixation and paraffin embedding the heart was investigated for homogeneity of ink distribution in the capillary system through three cross sections and by immunohistochemistry. The immunohistochemical detection of granulocytes occurred by a-naphthol chloroacetate esterase staining. […]

[4] = test system: subjects with acute sinusitis; experiment: Aerosol inhalation in acute sinusitis (rhinoendoscopy); type: in vivo, human; settings: D2O aerosol with 150 mM NaCl inhaled for 15 minutes
Description: Aerosols from D2O and H2O each mixed with 150 mM NaCl were prepared according to example 2. Subjects with acute sinusitis in the maxillary sinus area were divided into two groups. The experimental group inhaled the D2O aerosol for 15 minutes, the control group the H2O aerosol. During inhalation the subjects were relied on to inhale through the nose as much as possible. Every 3 hours after inhalation a rhinoendoscopic examination of the sinuses was conducted.

Syrian Gold hamsters = experiment: D2O aerosols in an animal model of COPD (HNE-induced hemorrhage); type: in vivo, hamster
Description: The employed H2O was distilled and ion-exchanged. Both D2O and H2O were sterile. A Pari LC Plus universal atomizer (PARI GmbH, Starnberg, Germany) was used for aerosolization combined with a Pari universal compressor, which generated 200 mg/min polydispersed aerosol with an average particle size (median diameter) of 2.5 μm for pure H2O and pure D2O and 2.5-4.5 μm for H2O and D2O with additional non-pharmaceutical and/or pharmaceutical agents (operating pressure 2.0 bar, flow rate of the compressor air was 6.0 L/min). The particle size measurement occurred with dynamic light scattering in a flow cell. Aerosol generation occurred at a temperature of 37° C. by corresponding thermostating of the atomizer in a water bath thermostat.
Male Syrian Gold hamsters (average weight 105 g±8 g) were divided into two groups (experimental group and control group) of six hamsters each. The animals of both groups were anesthetized intraperitoneally (ketamine 95 mg/kg and xylazine 17 mg/kg) and then intubated endotracheally by direct laryngoscopy. Both groups received 100 μL of human neutrophil elastase (500 μg/mL in sterile 0.9% NaCl solution) instilled. […] For BAL 2.5 mL 0.9% NaCl solution was repeatedly instilled (total of three times) and the hemoglobin concentration then determined in the instillate speetrophotometrically. […] For the experimental group an average hemoglobin value of 120±20 mOD was measured. […]

[2H]O[2H] [D2O, deuterium oxide]
local psoriasis severity index (LPSI) [1]: significant reduction of LPSI
average percentage change in air flow <Lf%> ([2]; after 30 minutes): 20±5%
average percentage change in air flow <Lf%> ([2]; after 60 minutes): 90±10%
heart muscle damage (granulocytes, capillary ink marking) [3]: significantly lower heart muscle damage
mucosal swelling ([4]; vs H2O aerosol control group): significant reduction of mucosal swelling
outflow of secretion ([4]; vs control group): improved outflow of secretion
inhibition of acute lung damage caused by elastase (hemorrhage) (Syrian Gold hamsters; D2O aerosol 24 hours, from reduction in hemoglobin concentration vs H2O aerosol control group): 60%
average hemoglobin value in BAL (Syrian Gold hamsters; continuous D2O aerosol in respiration air for 24 hours after HNE instillation): 120±20 mOD
